Measured values as given in ChEMBL document CHEMBL1201862, “PubChem BioAssay data set” (2004).
Activity calls are given as the source filed them.

Key:
[1] = THP-1 cell cytotoxicity, dose response, cytotoxicity control for non-replicating M. tuberculosis project (AID 489025); type: functional
cells = type: functional
[2] = target: Fructose-bisphosphate aldolase (Mycobacterium tuberculosis, UniProt P9WQA3); test: Fluorescence-based biochemical high throughput dose response assay for inhibitors of the fructose-bisphosphate aldolase (FBA) of M. tuberculosis.; type: functional
Sequence of Fructose-bisphosphate aldolase (P9WQA3 whole entry): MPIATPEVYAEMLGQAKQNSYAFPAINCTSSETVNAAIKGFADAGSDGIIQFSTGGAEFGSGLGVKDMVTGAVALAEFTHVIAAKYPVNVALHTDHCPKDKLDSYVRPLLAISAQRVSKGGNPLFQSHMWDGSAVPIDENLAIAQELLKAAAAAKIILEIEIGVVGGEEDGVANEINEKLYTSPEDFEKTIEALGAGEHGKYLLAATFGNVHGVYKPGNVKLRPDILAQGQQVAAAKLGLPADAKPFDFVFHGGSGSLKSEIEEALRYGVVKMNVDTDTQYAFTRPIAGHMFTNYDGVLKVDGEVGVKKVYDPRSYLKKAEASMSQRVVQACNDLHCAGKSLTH

[3] = potency of ADAM10 substrate cleavage blockers – biochemical, QFRET, dose response (AID 743254);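 also: ADAM10 enzyme with the DM2 quenched FRET peptide as substrate; EDANS fluorescence gain as the protease cuts the substrate; inhibitor potency against ADAM10 proteolytic activity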
[4] = target: Disintegrin and metalloproteinase domain-containing protein 17 (Homo sapiens, UniProt P78536); test: inhibition of ADAM17 substrate cleavage – biochemical, quenched FRET substrate, counter-screen for ADAM10 exosite inhibitor project, dose response (AID 743253)
Sequence of Disintegrin and metalloproteinase domain-containing protein 17 (P78536 whole entry, the tested form may be a part): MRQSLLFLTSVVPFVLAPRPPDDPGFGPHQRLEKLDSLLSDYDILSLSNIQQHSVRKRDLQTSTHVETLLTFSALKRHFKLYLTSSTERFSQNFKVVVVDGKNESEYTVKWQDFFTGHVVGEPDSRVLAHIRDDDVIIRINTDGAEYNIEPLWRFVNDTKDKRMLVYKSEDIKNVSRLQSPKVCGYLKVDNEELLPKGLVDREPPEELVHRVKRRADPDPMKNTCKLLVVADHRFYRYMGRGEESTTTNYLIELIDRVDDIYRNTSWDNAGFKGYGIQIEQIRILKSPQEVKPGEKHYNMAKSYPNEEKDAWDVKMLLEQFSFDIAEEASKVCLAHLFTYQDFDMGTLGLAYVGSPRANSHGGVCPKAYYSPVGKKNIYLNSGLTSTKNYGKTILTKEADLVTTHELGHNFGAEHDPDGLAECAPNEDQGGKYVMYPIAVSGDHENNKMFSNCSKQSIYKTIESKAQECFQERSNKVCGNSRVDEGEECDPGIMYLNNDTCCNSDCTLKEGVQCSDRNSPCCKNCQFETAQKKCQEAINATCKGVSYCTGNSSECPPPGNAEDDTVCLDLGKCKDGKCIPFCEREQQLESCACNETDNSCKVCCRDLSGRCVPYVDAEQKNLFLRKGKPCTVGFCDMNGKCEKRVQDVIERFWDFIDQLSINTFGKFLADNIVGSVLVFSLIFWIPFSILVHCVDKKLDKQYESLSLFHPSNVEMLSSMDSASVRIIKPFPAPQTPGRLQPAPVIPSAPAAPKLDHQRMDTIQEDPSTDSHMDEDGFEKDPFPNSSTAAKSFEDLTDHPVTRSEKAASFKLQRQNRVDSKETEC

Aminopeptidase N = target: T1, Aminopeptidase N (Plasmodium falciparum FcB1/Columbia, UniProt O96935); test: malaria alanyl aminopeptidase activity blockers – biochemical, fluorogenic H-Leu-NHMec substrate, 1536-well (AID 1445); design: species or system Plasmodium falciparum 3D7, 3D7
T1 sequence (O96935 whole entry): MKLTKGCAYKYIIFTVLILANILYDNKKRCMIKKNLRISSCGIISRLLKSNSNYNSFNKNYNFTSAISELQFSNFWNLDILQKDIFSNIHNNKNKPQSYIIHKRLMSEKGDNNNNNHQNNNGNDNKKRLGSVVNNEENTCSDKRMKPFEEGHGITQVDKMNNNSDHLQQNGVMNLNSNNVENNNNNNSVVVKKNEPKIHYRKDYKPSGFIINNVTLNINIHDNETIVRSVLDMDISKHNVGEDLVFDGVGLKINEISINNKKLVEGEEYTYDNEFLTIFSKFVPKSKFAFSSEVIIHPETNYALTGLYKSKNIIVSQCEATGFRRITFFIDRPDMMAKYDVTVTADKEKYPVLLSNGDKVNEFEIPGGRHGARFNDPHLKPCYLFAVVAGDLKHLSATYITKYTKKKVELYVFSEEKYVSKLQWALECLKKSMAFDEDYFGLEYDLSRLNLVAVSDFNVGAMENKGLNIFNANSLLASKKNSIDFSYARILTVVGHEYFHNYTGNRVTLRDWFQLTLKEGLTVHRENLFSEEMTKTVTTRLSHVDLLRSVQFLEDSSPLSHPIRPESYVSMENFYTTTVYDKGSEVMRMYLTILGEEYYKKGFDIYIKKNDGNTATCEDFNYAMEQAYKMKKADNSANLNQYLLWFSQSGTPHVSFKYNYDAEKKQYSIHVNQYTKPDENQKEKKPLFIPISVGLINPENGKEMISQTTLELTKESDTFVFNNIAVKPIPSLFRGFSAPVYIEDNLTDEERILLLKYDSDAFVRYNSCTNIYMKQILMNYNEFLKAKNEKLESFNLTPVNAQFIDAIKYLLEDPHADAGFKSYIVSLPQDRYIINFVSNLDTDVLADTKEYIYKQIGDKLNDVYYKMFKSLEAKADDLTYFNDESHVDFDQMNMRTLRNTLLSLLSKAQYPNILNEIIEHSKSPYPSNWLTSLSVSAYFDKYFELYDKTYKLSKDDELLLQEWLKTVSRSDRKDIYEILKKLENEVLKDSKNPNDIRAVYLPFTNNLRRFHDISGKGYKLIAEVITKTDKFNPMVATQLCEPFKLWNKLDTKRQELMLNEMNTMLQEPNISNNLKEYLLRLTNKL

Kallikrein-7 = Kallikrein-7 (Homo sapiens, UniProt P49862); test: Fluorescence Intensity-based biochemical primary high throughput dose response assay to identify activators of kallikrein-7 (K7) zymogen.
Sequence of Kallikrein-7 (P49862 whole entry): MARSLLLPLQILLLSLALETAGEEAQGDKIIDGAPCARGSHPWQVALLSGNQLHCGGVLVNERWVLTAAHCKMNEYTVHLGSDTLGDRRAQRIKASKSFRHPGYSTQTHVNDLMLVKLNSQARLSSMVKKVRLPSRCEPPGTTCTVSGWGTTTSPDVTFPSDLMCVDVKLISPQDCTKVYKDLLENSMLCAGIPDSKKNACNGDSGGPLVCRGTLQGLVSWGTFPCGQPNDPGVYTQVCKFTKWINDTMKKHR

[5] = intracellular Trypanosoma cruzi inhibitors in host cells – cell-based, plate reader, cherry-pick samples, set 3, dose response (AID 651818); type: functional;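 also: compounds incubated with infected cells for about four days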
Paired box protein Pax-8 = Paired box protein Pax-8 (Homo sapiens, UniProt Q06710); test: PAX8 transcriptional activity inhibition in RMG-I – RMG-I cells, luciferase, cherry-pick, dose response (AID 687027); type: functional, cell-based;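 also: luciferase reporter driven by Pax8 target thyroperoxidase promoter measured by SteadyGlo luminescence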
Sequence of Paired box protein Pax-8 (Q06710 whole entry): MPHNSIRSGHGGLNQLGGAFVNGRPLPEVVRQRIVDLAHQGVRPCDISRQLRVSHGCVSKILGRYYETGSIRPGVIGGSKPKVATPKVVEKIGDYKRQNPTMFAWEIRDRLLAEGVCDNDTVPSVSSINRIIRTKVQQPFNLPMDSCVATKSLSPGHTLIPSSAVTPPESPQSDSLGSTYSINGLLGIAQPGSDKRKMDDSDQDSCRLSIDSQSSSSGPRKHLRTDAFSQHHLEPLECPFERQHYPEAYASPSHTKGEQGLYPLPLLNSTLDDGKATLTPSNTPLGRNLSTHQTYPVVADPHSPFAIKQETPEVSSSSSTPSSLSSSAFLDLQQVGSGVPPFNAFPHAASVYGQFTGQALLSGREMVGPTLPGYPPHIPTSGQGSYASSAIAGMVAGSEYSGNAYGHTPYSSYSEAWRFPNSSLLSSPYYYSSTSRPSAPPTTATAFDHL

[6] = OVCAR-3 cell viability loss – plate reader, dry powder samples, PAX8 inhibitor project, dose response (AID 743044); type: functional, cell-based
[7] = IGROV1 cell killing – plate reader, dry powder samples, PAX8 inhibitor project, dose response (AID 743043); type: functional, cell-based; conditions: IGROV-1
[8] = OVCAR8 cell viability loss – plate reader, dry powder samples, PAX8 project, dose response (AID 743197); type: functional, cell-based; conditions: OVCAR-8
[9] = general cell-killing toxicity readout – plate reader, dry powder samples, cytotoxicity control for PAX8 inhibitor project, dose response (AID 743021); type: functional, cell-based
[10] = T. cruzi growth inhibition in host cells, dose response, cell-based, plate reader, dry powder, set 2 (AID 652275); type: functional
[11] = general mammalian cell viability loss – inhibitor set, cherry-pick, set 2, cytotoxicity control for miR-122 modulator project, dose response (AID 720697); type: functional, cell-based
[12] = cytotoxicity in MITF-independent A375 cells – cell-based, CellTiter-Glo luminescence, dry powder, set 4, counter-screen for MITF inhibitor project, dose response (AID 624364); type: functional; conditions: A-375;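 also: A375 melanoma cells are MITF independent so this is a counter screen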

## COc1ccc2nc(N=C(N)NC(=O)C(C)(C)C)nc(C)c2c1
[1]
  CC50: > 40 µM (active)
cells
  IC50: 9.61 µM (active)
[2]
  IC50: 1.89 µM (active)

## COc1ccc(NC(S)=Nc2cc(-c3ccccc3)[nH]n2)cc1Cl
[3]
  IC50: > 69.5 µM (inactive)
[4]
  IC50: > 69.5 µM (inactive)

## CCN(CC)CCCNc1oc(/C=C/c2ccccc2)nc1C#N
Aminopeptidase N
  IC50: 61 µM (active)
Kallikrein-7
  EC50: > 69.5 µM (inactive)

## C[C@@H]1CN([C@@H](C)CO)C(=O)c2cc(NC(=O)Nc3ccc(C(F)(F)F)cc3)ccc2O[C@H]1CN(C)C(=O)Nc1ccc(C(F)(F)F)cc1
[5]
  AC50: 3.41 µM (active)
Paired box protein Pax-8
  AC50: 5.97 µM (active)
[6]
  AC50: 42.1 µM (active)
[7]
  AC50: 52.1 µM (active)
[8]
  AC50: 61.2 µM (active)

## C[C@@H]1CN([C@@H](C)CO)C(=O)Cc2cc(NC(=O)Cc3ccccc3)ccc2O[C@H]1CN(C)Cc1ccc(-c2ccccc2)cc1
Paired box protein Pax-8
  AC50: 9.31 µM (active)
[9]
  AC50: 45.7 µM (active)

## C[C@@H]1CCCCO[C@H](CN(C)Cc2ccc(Cl)c(Cl)c2)[C@@H](C)CN([C@@H](C)CO)C(=O)c2cc(NC(=O)Cc3ccccc3)ccc2O1
Paired box protein Pax-8
  AC50: 11.2 µM (active)
[6]
  AC50: 33.4 µM (active)
[7]
  AC50: 50.5 µM (active)
[8]
  AC50: > 70 µM (inactive)

## C[C@H]1CN([C@@H](C)CO)C(=O)c2cccc(NC(=O)c3ccncc3)c2O[C@@H]1CN(C)Cc1cc(Cl)cc(Cl)c1
[10]
  AC50: 0.0105 µM (active)

## CCC(=O)N1[C@H](CO)[C@@H](c2ccccc2)[C@@H]1CN(C(C)C)S(C)(=O)=O
[11]
  AC50: 0.51 µM (active)

## C=CCNC1=C(NS(=O)(=O)c2cccs2)C(=O)c2ccccc2C1=O
[12]
  AC50: > 70 µM (inactive)
